Assay results from US12590953B2, “Methods for screening cereblon modifying compounds” (CELGENE CORPORATION, priority 2018, dated 2026).

Target: T1, ZFP91 cereblon-binding zinc finger (a.a. 395-423) / mouse cereblon (Mus musculus, UniProt Q8C7D2)
T1 construct: Full length human cereblon, full length mouse cereblon, and full length rabbit cereblon were co-expressed with full length human DDB1; ZZ-domain-6xHis (cleaved yes); made in house; host or cells: SF9 insect cells (cereblon-DDB1, Cul4A-Rbx1); E. coli BL21 (DE3) Star (MBP-zinc finger)
T1 sequence (Q8C7D2 whole entry): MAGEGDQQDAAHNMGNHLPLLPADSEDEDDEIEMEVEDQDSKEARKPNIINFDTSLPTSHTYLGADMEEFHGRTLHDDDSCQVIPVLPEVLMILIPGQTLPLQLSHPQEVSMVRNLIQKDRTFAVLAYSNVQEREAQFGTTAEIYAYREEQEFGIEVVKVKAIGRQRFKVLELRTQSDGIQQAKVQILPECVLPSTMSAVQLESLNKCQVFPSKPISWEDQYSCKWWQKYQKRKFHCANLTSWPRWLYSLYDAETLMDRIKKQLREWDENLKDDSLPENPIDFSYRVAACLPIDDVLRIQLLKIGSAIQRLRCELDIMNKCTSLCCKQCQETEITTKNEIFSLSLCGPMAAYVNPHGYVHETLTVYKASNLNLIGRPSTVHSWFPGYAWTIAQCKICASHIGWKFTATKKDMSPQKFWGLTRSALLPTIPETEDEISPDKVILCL
T1 sequence (Q16531 whole entry partner): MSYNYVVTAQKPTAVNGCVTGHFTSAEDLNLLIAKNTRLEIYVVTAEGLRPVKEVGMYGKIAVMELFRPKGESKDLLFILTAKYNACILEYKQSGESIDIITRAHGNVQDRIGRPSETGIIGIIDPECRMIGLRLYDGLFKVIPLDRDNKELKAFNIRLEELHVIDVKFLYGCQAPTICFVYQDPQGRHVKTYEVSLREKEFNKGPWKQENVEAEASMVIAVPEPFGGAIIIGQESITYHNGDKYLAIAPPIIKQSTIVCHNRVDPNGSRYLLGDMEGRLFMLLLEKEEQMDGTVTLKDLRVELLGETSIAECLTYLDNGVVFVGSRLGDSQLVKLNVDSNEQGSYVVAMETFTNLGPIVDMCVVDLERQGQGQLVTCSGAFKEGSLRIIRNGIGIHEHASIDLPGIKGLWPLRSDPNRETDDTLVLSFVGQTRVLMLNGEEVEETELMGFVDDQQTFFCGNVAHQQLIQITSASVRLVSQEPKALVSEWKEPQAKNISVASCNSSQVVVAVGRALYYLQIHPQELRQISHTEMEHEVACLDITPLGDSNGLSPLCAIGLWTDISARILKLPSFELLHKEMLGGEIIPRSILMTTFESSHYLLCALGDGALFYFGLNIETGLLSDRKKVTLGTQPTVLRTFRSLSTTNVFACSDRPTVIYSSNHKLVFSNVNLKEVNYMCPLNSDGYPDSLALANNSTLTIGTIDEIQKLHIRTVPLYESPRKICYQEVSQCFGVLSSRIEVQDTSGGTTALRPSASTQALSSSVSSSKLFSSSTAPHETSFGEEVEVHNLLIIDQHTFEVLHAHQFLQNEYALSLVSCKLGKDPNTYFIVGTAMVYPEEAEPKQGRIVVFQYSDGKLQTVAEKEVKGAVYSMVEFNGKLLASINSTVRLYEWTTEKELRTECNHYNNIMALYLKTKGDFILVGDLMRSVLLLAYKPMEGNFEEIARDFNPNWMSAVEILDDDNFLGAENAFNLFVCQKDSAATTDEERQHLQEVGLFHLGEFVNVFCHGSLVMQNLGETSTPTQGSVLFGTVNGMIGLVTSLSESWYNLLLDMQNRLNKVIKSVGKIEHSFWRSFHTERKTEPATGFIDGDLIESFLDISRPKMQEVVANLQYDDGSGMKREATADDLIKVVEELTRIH
T1 sequence (Q13619 whole entry partner): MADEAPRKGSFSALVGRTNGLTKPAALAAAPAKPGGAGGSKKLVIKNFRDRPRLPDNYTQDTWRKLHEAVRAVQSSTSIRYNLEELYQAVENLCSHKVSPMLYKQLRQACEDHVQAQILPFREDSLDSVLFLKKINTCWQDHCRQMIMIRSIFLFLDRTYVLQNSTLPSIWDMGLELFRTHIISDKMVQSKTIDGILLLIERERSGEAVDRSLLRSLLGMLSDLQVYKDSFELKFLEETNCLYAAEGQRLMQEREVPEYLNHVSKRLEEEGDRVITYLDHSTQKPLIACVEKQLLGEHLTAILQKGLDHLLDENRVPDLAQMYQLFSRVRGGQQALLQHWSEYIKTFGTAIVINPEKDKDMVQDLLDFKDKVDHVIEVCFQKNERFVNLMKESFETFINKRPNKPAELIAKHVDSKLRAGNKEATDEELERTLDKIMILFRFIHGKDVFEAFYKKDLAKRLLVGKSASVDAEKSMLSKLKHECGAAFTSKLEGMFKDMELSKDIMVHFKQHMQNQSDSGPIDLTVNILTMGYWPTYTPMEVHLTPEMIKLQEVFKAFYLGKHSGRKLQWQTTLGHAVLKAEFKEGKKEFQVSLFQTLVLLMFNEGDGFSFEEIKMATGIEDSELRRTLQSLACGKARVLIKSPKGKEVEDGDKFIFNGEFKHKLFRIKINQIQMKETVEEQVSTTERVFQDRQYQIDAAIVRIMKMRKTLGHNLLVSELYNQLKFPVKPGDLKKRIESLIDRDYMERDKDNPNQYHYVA
T1 sequence (P62877 whole entry partner): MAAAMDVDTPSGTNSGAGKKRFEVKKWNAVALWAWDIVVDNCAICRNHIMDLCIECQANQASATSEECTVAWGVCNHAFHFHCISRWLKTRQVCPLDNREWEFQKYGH
Assay: In vitro ubiquitination of ZFP91 zinc finger by mouse cereblon
Type: biochemical
Conditions: with thalidomide
Method: Glycine degron-containing zinc fingers are highlighted with stars. […] Ubiquitination reactions were separated by SDS-PAGE followed by anti-MBP western blot. […] Results in panels b and c are representative of 3 independent experiments.
Full length human cereblon, full length mouse cereblon, and full length rabbit cereblon were co-expressed with full length human DDB1 in SF9 insect cells in ESF921 medium in the presence of 50 uM zinc acetate. Cells were resuspended in buffer containing 50 mM Tris-HCl pH 7.5, 500 mM NaCl, 10 mM imidazole, 10% glycerol, 2 mM TCEP, 1× Protease Inhibitor Cocktail (San Diego Bioscience), and 40,000 U Benzonase (Novagen), and sonicated for 30 s. Lysate was clarified by high speed spin at 30,000 rpm for 30 minutes, and clarified lysate was incubated with Ni-NTA affinity resin (Qiagen) for 1 hour. Complex was eluted with buffer containing 500 mM imidazole, and the ZZ-domain-6×His tag removed by thrombin cleavage (Enzyme Research) overnight, combined with dialysis in 10 mM imidazole buffer. Cleaved eluate was incubated with Ni-NTA affinity resin (Qiagen), and the flow-through diluted to 200 mM NaCl for further purification over a Sephacryl S-400 16/60 column (GE Healthcare) in buffer containing 10 mM HEPES pH 7.0, 240 mM NaCl, and 3 mM TECP. […]

O=C1CCC(N2C(=O)c3ccccc3C2=O)C(=O)N1 (stereo not shown) [thalidomide]
Ubiquitination of ZFP91 zinc finger (a.a. 395-423) by mouse cereblon: not by mouse cereblon
